Laboratory results reported in patent US20110136819A1, “6-THIOXOPYRIDAZINE DERIVATIVES” (MERCK PATENT GESELLSCHAFT MIT BESCHRÄNKTER HAFTUNG, priority 2007, published 2011).
Counter-ions that a name gives are not always drawn.

Molecular target: T1, Met kinase (Homo sapiens, UniProt P08581)
T1 construct: 6His (N); purchased Upstate 14-526; host or cells: Sf21 insect cells (S. frugiperda), baculovirus
Test: Met kinase inhibition (enzyme assay), flashplate method
Format: biochemical
Conditions: 33P-ATP, substrate pAGLT, 3 hrs at room temperature
Source text: According to the manufacturer's data (Met, active, upstate, catalogue no. 14-526), Met kinase is expressed for the purposes of protein production in insect cells (Sf21; S. frugiperda) and subsequent affinity-chromatographic purification as “N-terminal 6His-tagged” recombinant human protein in a baculovirus expression vector.
The test plates used are 96-well Flashplate® microtitre plates from Perkin Elmer (Cat. No. SMP200). The components of the kinase reaction described below are pipetted into the assay plate. The Met kinase and the substrate poly Ala-Glu-Lys-Tyr, (pAGLT, 6:2:5:1), are incubated for 3 hrs at room temperature with radioactively labelled ^33P-ATP in the presence and absence of test substances in a total volume of 100 μl. The reaction is terminated using 150 μl of a 60 mM EDTA solution. After incubation for a further 30 min at room temperature, the supernatants are filtered off with suction, and the wells are washed three times with 200 μl of 0.9% NaCl solution each time. The measurement of the bound radioactivity is carried out by means of a scintillation measuring instrument (Topcount NXT, Perkin-Elmer).
The full value used is the inhibitor-free kinase reaction. This should be approximately in the range 6000-9000 cpm. The pharmacological zero value used is staurosporin in a final concentration of 0.1 mM. The inhibitory values (IC50) are determined using the RS1_MTS program.
30 μl of assay buffer 10 μl of substance to be tested in assay buffer with 10% of DMSO 10 μl of ATP (final concentration 1 μM cold, 0.35 μCi of ^33P-ATP) 50 μl of Met kinase/substrate mixture in assay buffer; • (10 ng of enzyme/well, 50 ng of pAGLT/well)
Assay Buffer: • 50 mM HEPES • 3 mM magnesium chloride • 3 μM sodium orthovanadate • 3 mM manganese(II) chloride • 1 mM dithiothreitol (DTT) • pH=7.5 (to be set using sodium hydroxide)
Stop Solution: • 60 mM Titriplex III (EDTA) • ^33P-ATP: Perkin-Elmer; • Met kinase: Upstate, Cat. No. 14-526, Stock 1 μg/10 μl; spec. activity 954 U/mg; • Poly-Ala-Glu-Lys-Tyr, 6:2:5:1: Sigma Cat. No. P1152

T1 sequence (P08581 25-1390): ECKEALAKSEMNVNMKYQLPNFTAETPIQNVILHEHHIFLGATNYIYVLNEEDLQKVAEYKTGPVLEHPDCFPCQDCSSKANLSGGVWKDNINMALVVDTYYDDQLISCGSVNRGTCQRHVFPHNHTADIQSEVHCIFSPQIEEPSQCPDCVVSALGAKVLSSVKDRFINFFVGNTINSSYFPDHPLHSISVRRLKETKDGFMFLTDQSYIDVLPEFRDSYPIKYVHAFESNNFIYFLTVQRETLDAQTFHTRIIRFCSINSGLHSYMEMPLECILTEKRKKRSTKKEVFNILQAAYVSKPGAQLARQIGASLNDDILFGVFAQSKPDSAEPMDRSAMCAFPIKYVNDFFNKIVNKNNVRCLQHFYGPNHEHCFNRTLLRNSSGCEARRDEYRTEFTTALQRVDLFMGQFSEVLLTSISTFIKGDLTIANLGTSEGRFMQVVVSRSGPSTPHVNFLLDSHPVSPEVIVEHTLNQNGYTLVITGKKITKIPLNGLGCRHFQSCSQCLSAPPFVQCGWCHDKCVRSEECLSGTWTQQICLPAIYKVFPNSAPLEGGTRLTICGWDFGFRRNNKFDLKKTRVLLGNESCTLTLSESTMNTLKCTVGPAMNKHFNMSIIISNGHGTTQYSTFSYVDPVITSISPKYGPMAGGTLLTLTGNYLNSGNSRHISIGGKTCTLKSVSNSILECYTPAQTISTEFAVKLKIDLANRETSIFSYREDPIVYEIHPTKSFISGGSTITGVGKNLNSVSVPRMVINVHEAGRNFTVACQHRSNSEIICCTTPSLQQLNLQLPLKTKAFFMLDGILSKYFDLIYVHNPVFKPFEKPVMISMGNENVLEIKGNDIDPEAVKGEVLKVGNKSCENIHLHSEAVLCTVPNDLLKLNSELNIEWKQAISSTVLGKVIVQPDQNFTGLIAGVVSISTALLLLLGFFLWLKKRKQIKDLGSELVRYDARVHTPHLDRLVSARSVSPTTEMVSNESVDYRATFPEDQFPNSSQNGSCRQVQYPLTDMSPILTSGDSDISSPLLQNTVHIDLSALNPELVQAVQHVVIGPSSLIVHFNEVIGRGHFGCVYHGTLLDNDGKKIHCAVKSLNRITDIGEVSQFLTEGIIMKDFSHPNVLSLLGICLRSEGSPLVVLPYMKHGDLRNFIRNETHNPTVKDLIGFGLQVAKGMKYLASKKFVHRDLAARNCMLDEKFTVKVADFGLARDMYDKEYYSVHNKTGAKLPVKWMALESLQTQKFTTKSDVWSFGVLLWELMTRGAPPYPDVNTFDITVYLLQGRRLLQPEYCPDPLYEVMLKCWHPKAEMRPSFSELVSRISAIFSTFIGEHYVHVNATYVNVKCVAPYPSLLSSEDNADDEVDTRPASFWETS

## CN1CCN(CCCOC(=O)Nc2cccc(Cn3nc(-c4cc(F)cc(F)c4)ccc3=S)c2)CC1 [Compound A1, 3-(4-methylpiperazin-1-yl)propyl{3-[6-thioxo-3-(3,5-difluorophenyl)-6H-pyridazin-1-ylmethyl]phenyl}carbamate]
  IC50: 10 to 1000 nM

## CN1CCN(CCCOC(=O)Nc2cccc(Cn3nc(-c4cc(F)c(F)c(F)c4)ccc3=S)c2)CC1 [Compound A2, 3-(4-methylpiperazin-1-yl)propyl{3-[6-thioxo-3-(3,4,5-trifluorophenyl)-6H-pyridazin-1-ylmethyl]phenyl}carbamate formate]
  IC50: 10 to 1000 nM

## Cc1cnc(-c2cccc(Cn3nc(-c4cc(F)cc(F)c4)ccc3=S)c2)s1 [Compound A3, 6-(3,5-difluorophenyl)-2-[3-(5-methylthiazol-2-yl)-benzyl]-2H-pyridazine-3-thione]
  IC50: 10 to 1000 nM

## Cc1cnc(-c2cccc(Cn3nc(-c4cccc(Cl)c4)ccc3=S)c2)s1 [Compound A4, 6-(3-chlorophenyl)-2-[3-(5-methylthiazol-2-yl)benzyl]-2H-pyridazine-3-thione]
  IC50: 10 to 1000 nM
